The test concerns nude mice, LX-1 lung xenograft intrarenal, tumor weight T/C. In words: NCI In Vivo Anticancer Drug Screen. Data for tumor model Human Lung LX-1 Xenograft (intrarenal inoculation) in NU/NU Swiss (nude) mice. Conditions: endpoint: mean tumor weight change, higher = larger tumour. A digest of the protocol:
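In vivo, transplantable tumor; compound vs vehicle arms; tumor size measured; value = T/C.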
For orientation: In xenograft studies the graft and the host belong to different species.

[1] abbreviates: dose: 6.25 mg/kg/injection, schedule: Q01DX010 (sc), vehicle: saline.
Setting [2] is: dose: 12.5 mg/kg/injection, schedule: Q01DX010 (sc), vehicle: saline.
Setting [3] is: dose: 25.0 mg/kg/injection, schedule: Q01DX010 (sc), vehicle: saline.
The mark [4] stands for this setting: dose: 300.0 mg/kg/injection, schedule: Q04DX003 (sc), vehicle: suspension in saline.
[5] abbreviates: dose: 600.0 mg/kg/injection, schedule: Q04DX003 (sc), vehicle: suspension in saline.
The mark [6] stands for this setting: dose: 1200.0 mg/kg/injection, schedule: Q04DX003 (sc), vehicle: suspension in saline.
Where [7] appears, read: dose: 150.0 mg/kg/injection, schedule: Q04DX003 (sc), vehicle: suspension in saline.
Where [8] appears, read: dose: 100.0 mg/kg/injection, schedule: Q04DX003 (sc), vehicle: saline with Tween-80.
Where [9] appears, read: dose: 200.0 mg/kg/injection, schedule: Q04DX003 (sc), vehicle: saline with Tween-80.
The mark [10] stands for this setting: dose: 800.0 mg/kg/injection, schedule: Q04DX003 (sc), vehicle: saline with Tween-80.

Several values for one entry are separate records, joined by “and”; a condition that tells them apart may be missing. Equal values may be shown once. Records with an inconclusive call do not appear.

For `C1CN(P2(N3CC3)=NP(N3CC3)(N3CC3)=NP(N3CC3)(N3CC3)=N2)CCO1` (stereo unspecified), the T/C is 107 % of control under setting [1]; 38 % of control and 43 % of control and 53 % of control under setting [2]; 28 % of control and 29 % of control and 31 % of control under setting [3]; 74 % of control and 82 % of control (dose: 25.0 mg/kg/injection, schedule: Q04DX003 (sc), vehicle: saline); 6 % of control and 8 % of control (dose: 50.0 mg/kg/injection, schedule: Q01DX010 (sc), vehicle: saline); 23 % of control and 35 % of control (dose: 50.0 mg/kg/injection, schedule: Q04DX003 (sc), vehicle: saline). Further, the T/C (dose: 100.0 mg/kg/injection, schedule: Q04DX003 (sc), vehicle: saline) was 25 % of control.
With `N=c1ccn2c(n1)OC1C(O)C(CO)OC12` (stereo unspecified), the T/C by setting is: (dose: 37.5 mg/kg/injection, schedule: Q04DX003 (sc), vehicle: saline) 91 % of control; (dose: 75.0 mg/kg/injection, schedule: Q04DX003 (sc), vehicle: saline) 95 % of control; (dose: 150.0 mg/kg/injection, schedule: Q04DX003 (sc), vehicle: saline) 121 % of control; (dose: 300.0 mg/kg/injection, schedule: Q04DX003 (sc), vehicle: saline) 77 % of control; under setting [4], 176 % of control; under setting [5], 231 % of control. For the same compound, the T/C (dose: 800.0 mg/kg/injection, schedule: Q04DX003 (sc), vehicle: saline) was 24 % of control and 48 % of control; the T/C under setting [6] is 41 % of control; the T/C (dose: 1600.0 mg/kg/injection, schedule: Q04DX003 (sc), vehicle: saline) is 18 % of control and 31 % of control; the T/C (dose: 2400.0 mg/kg/injection, schedule: Q04DX003 (sc), vehicle: suspension in saline) is 36 % of control; the T/C (dose: 3200.0 mg/kg/injection, schedule: Q04DX003 (sc), vehicle: saline) is 6 % of control and 18 % of control.
As for `O=C(Nc1nncs1)c1cccs1`, the T/C is, setting by setting: (dose: 300.0 mg/kg/injection, schedule: Q04DX003 (sc), vehicle: saline with Tween-80) 119 % of control; (dose: 600.0 mg/kg/injection, schedule: Q04DX003 (sc), vehicle: saline with Tween-80) 85 % of control; (dose: 1200.0 mg/kg/injection, schedule: Q04DX003 (sc), vehicle: saline with Tween-80) 120 % of control.
As for `COc1cccc2c1C(=O)c1c(O)c3c(c(O)c1C2=O)C[C@@](O)(C(=O)COC(=O)c1cccnc1)C[C@@H]3OC1CC(N)C(O)C(C)O1` (stereo partly specified), the T/C runs as follows: (dose: 3.0 mg/kg/injection, schedule: Q04DX003 (sc), vehicle: saline) 120 % of control; (dose: 12.0 mg/kg/injection, schedule: Q04DX003 (sc), vehicle: saline) 75 % of control; (dose: 24.0 mg/kg/injection, schedule: Q04DX003 (sc), vehicle: saline) 83 % of control.
Consider `CCCCC1CCCCCCc2[nH]c(/C=C3\N=C(c4ccc[nH]4)C=C3OC)cc21` (stereo unspecified), for which the T/C was 61 % of control (dose: 4.0 mg/kg/injection, schedule: Q04DX003 (sc), vehicle: saline with Tween-80); 66 % of control (dose: 8.0 mg/kg/injection, schedule: Q04DX003 (sc), vehicle: saline with Tween-80); 55 % of control (dose: 16.0 mg/kg/injection, schedule: Q04DX003 (sc), vehicle: saline with Tween-80).
For `CC1=C(C)C(=O)O[C@@H]([C@](C)(O)[C@]2(O)CC[C@@]3(O)[C@@H]4C[C@H]5O[C@]56CC=CC(=O)[C@]6(C)[C@H]4CC[C@]23C)C1`, the T/C under setting [7] was 112 % of control, the T/C under setting [4] was 84 % of control, the T/C under setting [5] is 46 % of control and the T/C under setting [6] was 81 % of control.
On to `C[PH+](C)C.C[PH+](C)C.[Au]`, for which the T/C (dose: 5.0 mg/kg/injection, schedule: Q04DX003 (sc), vehicle: suspension in saline) is 111 % of control; the T/C (dose: 10.0 mg/kg/injection, schedule: Q04DX003 (sc), vehicle: suspension in saline) was 118 % of control; the T/C (dose: 20.0 mg/kg/injection, schedule: Q04DX003 (sc), vehicle: suspension in saline) is 76 % of control.
With `C/C(=N\NC(N)=O)c1cccc(/C(C)=N/NC(N)=O)n1`, the T/C runs as follows: under setting [8], 83 % of control; under setting [9], 54 % of control; (dose: 400.0 mg/kg/injection, schedule: Q04DX003 (sc), vehicle: saline with Tween-80) 71 % of control; under setting [10], 89 % of control.
For the compound `CCCC(=O)OCc1cc(=O)n(C)c2c3c4c(cc12)c(C)cc(=O)n4CO3`, the T/C is 89 % of control (dose: 25.0 mg/kg/injection, schedule: Q01DX010 (sc), vehicle: Klucel (hydroxypropylcellulose) (HPC)); 70 % of control (dose: 50.0 mg/kg/injection, schedule: Q01DX010 (sc), vehicle: Klucel (hydroxypropylcellulose) (HPC)); 48 % of control (dose: 100.0 mg/kg/injection, schedule: Q01DX010 (sc), vehicle: Klucel (hydroxypropylcellulose) (HPC)); 63 % of control (dose: 200.0 mg/kg/injection, schedule: Q01DX010 (sc), vehicle: Klucel (hydroxypropylcellulose) (HPC)).
Regarding `CC1(C)N=C(N)N=C(N)N1c1ccc(F)c(C(F)(F)F)c1`, the T/C by setting is: (dose: 3.13 mg/kg/injection, schedule: Q01DX010 (sc), vehicle: saline) 76 % of control; under setting [2], 118 % of control and 122 % of control; under setting [3], 33 % of control.
On to `CCCCOCN(COCCCC)C(C)Cc1ccccc1` (stereo unspecified), for which the T/C was 71 % of control under setting [8], 85 % of control under setting [9] and 121 % of control under setting [10].
`COC1/C=C/C=C(/C)Cc2cc(O)c(Cl)c(c2)N(C)C(=O)CC(OC(=O)C(C)C)C2(C)OC2C(C)C2CC1(O)NC(=O)O2` (stereo unspecified): the T/C is 81 % of control (dose: 1.0 mg/kg/injection, schedule: Q04DX003 (sc), vehicle: saline + alcohol); 67 % of control (dose: 2.0 mg/kg/injection, schedule: Q04DX003 (sc), vehicle: saline + alcohol); 58 % of control (dose: 4.0 mg/kg/injection, schedule: Q04DX003 (sc), vehicle: saline + alcohol).
For the compound `CC(C)(C)C1CCCCC1`, the T/C is, setting by setting: (dose: 300.0 mg/kg/injection, schedule: Q04DX003 (sc), vehicle: Klucel (hydroxypropylcellulose) (HPC)) 94 % of control; (dose: 600.0 mg/kg/injection, schedule: Q04DX003 (sc), vehicle: Klucel (hydroxypropylcellulose) (HPC)) 68 % of control; (dose: 1200.0 mg/kg/injection, schedule: Q04DX003 (sc), vehicle: Klucel (hydroxypropylcellulose) (HPC)) 59 % of control; (dose: 2400.0 mg/kg/injection, schedule: Q04DX003 (sc), vehicle: Klucel (hydroxypropylcellulose) (HPC)) 46 % of control.
`CN(C)CCCNc1c2ccccc2nc2cccc([N+](=O)[O-])c12`: the T/C runs as follows: (dose: 0.37 mg/kg/injection, schedule: Q04DX003 (sc), vehicle: saline) 117 % of control; (dose: 0.75 mg/kg/injection, schedule: Q04DX003 (sc), vehicle: saline) 100 % of control; (dose: 1.5 mg/kg/injection, schedule: Q04DX003 (sc), vehicle: saline) 95 % of control.
Consider `N=[N+]=CC(=O)OCC(N)C(=O)O` (stereo unspecified), for which the T/C under setting [2] is 101 % of control.
`CN(C)C(=O)c1cccc(COc2ccc(N3C(N)=NC(N)=NC3(C)C)cc2Cl)c1`: the T/C under setting [1] was 85 % of control; the T/C under setting [2] is 57 % of control; the T/C under setting [3] was 25 % of control; the T/C (dose: 25.0 mg/kg/injection, schedule: Q01DX010 (sc), vehicle: suspension in saline) was 91 % of control.
In the case of `C(=N/NC1=NCCN1)/c1c2ccccc2c(/C=N\NC2=NCCN2)c2ccccc12`, the T/C is 117 % of control (dose: 18.75 mg/kg/injection, schedule: Q04DX003 (sc), vehicle: suspension in saline); 72 % of control (dose: 75.0 mg/kg/injection, schedule: Q04DX003 (sc), vehicle: suspension in saline); 49 % of control under setting [7].
As for `O=C(O)CC(=O)O.[NH-]C1CCCCC1[NH-].[Pt+2]` (stereo unspecified), the T/C (dose: 5.0 mg/kg/injection, schedule: Q01DX010 (sc), vehicle: dextrose) is 187 % of control and 247 % of control; the T/C (dose: 10.0 mg/kg/injection, schedule: Q01DX010 (sc), vehicle: dextrose) is 92 % of control.
As to `c1cc[c]([Sn][c]2ccccc2)cc1`, the T/C is 78 % of control (dose: 10.0 mg/kg/injection, schedule: Q01DX010 (sc), vehicle: saline); 54 % of control (dose: 20.0 mg/kg/injection, schedule: Q01DX010 (sc), vehicle: saline); 81 % of control (dose: 40.0 mg/kg/injection, schedule: Q01DX010 (sc), vehicle: saline).
